# Laboratory results from ChEMBL document CHEMBL6109124, “Identification of effective anti-osteosarcoma agents via screening of an in-house NQO1-targeted compound library” (Bioorg Med Chem, 2025).
# How the values were obtained:
# [1] = Toxicity in human MNNG cell xenografted Balb/c mouse assessed as body weight loss at 30 mg/kg, iv administered every 2 days for 3 weeks and measured every other day during compound dosing; assay type: organism-based; conditions: in vivo, 504 h, time 21 day
# [2] = Cytotoxicity against HUVEC assessed as cell growth inhibition measured after 72 hrs by MTT assay; assay type: toxicity, cell-based; conditions: human, HUVEC cells
# [3] = Toxicity in human MNNG cell xenografted Balb/c mouse assessed as reduction in Cr level at 30 mg/kg, iv administered every 2 days for 3 weeks and measured post last dose; assay type: organism-based; conditions: in vivo, 504 h, time 21 day
# HOS-TE85 [4] = test: Antitumor activity against human MNNG cells xenografted in Balb/c mouse assessed as tumor growth inhibition at 30 mg/kg, iv administered every 2 days for 3 weeks and measured daily during compound dosing relative to control; assay type: functional; conditions: HOS-TE85, 504 h, time 21 day, read-out: TGI
# [5] = Selectivity index, ratio of IC50 for cytotoxicity against HUVEC to IC50 for cytotoxicity against human MNNG cells; assay type: toxicity, cell-based; conditions: HUVEC and human MNNG cells, read-out: Ratio IC50
# [6] = Toxicity in human MNNG cell xenografted Balb/c mouse assessed as reduction in AST level at 30 mg/kg, iv administered every 2 days for 3 weeks and measured post last dose; assay type: organism-based; conditions: in vivo, 504 h, time 21 day
# HOS-TE85 [7] = test: Cytotoxicity against human MNNG cells assessed as cell growth inhibition measured after 72 hrs by MTT assay; assay type: functional, cell-based; conditions: HOS-TE85, 72 h
smiles,measurement,setting,value
CC1(C)CCC2=C(O1)c1ccccc1C(=O)C2=O [LAPACHONE],Activity,[1],Non-toxic
same,IC50 at 72 h,[2],12.5 µM
same,Activity,[3],Toxic
same,inhibition in vivo at 30 mg/kg,HOS-TE85 [4],58.9%
same,selectivity ratio,[5],5.16
same,Activity,[6],Toxic
same,IC50,HOS-TE85 [7],2.42 µM
